The values below come from ChEMBL document CHEMBL1142763, “Dibenzodioxocinones--a new class of CETP inhibitors” (Bioorg Med Chem Lett, 2005).

For data set [1], the target named is T1, Cholesteryl ester transfer protein (Homo sapiens, UniProt P11597).
T1 sequence (P11597 whole entry): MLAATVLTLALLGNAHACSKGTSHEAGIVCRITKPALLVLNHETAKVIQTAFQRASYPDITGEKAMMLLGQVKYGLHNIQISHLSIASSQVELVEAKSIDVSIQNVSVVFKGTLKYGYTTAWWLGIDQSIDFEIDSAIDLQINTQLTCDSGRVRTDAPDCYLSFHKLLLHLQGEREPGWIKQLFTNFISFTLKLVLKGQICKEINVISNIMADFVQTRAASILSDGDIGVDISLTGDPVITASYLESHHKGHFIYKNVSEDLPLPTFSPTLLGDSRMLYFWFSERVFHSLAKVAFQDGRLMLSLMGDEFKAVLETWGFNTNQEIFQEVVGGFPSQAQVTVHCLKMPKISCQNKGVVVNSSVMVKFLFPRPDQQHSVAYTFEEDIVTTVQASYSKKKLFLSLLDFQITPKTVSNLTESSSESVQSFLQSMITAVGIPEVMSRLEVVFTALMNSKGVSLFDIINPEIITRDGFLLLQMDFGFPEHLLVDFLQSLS
The data set can be described thus: Inhibitory concentration against Cholesterol ester transfer protein (CETP) in CETP fluorescence assay.

A short description of data set [2]: (§1) Half life period […] determined in rat plasma. The format is ADME, organism-based.
The nature of data set [3]: as §1. The format is ADME, cell-free.

A value given as a limit tells only on which side of the number the result lay.

In turn, `COc1c([C@@H](O)CC(C)C)ccc2c1C(=O)Oc1cc(C)cc(OC(=O)N3CC4CCC4C3)c1O2` (some centres not stated) gave an IC50 in data set [1] of 400 nM.
On the same count and under the same terms, the same measure for `COc1c([C@@H](O)CC(C)C)ccc2c1C(=O)Oc1cc(C)cc(OS(=O)(=O)C(F)(F)F)c1O2`: 10000 nM; for `COc1c([C@@H](O)CC(C)C)ccc2c1C(=O)Oc1cc(C)cc(OCC3CCCC3)c1O2`: 1500 nM.
For `COc1c([C@@H](O)CC(C)C)ccc2c1C(=O)Oc1cc(C)cc(OC(=O)N3CCCC3)c1O2`, in data set [1], the IC50 was found to be 800 nM. In addition, in data set [2], the half-life was 2.9 h.
In turn, `COc1c([C@@H](O)CC(C)C)ccc2c1C(=O)Oc1cc(C)cc(O)c1O2` displayed a 50% inhibitory concentration (IC50) in data set [1] of more than 20000 nM.
In turn, `COc1c([C@@H](O)CC(C)C)ccc2c1C(=O)Oc1cc(C)cc(OC(=O)C3CC4C=CC3C4)c1O2` (some centres not stated) came in with an IC50 in data set [1] of 200 nM. The compound also showed a half-life in data set [3] of less than 0.1 h.
Take `COc1c([C@@H](O)CC(C)C)ccc2c1C(=O)Oc1cc(C)cc(OCc3ccccc3)c1O2`: the IC50 in data set [1] was determined as 13000 nM.
The compound `COc1c([C@@H](O)CC(C)C)ccc2c1C(=O)Oc1cc(C)cc(OC(=O)C3(C)C4CCC3CC4)c1O2` (some centres not stated) gave an IC50 in data set [1] of 200 nM. The half-life in data set [3] is 4.2 h.
Take `CCCCCS(=O)(=O)Oc1cc(C)cc2c1Oc1ccc([C@@H](O)CC(C)C)c(OC)c1C(=O)O2`: in data set [1], the IC50 was 4000 nM. That is a single-digit micromolar value.
`COc1c([C@@H](O)CC(C)C)ccc2c1C(=O)Oc1cc(C)cc(OC(=O)C3CCCC3)c1O2` registered an IC50 in data set [1] of 600 nM.
In the case of `COc1c([C@@H](O)CC(C)C)ccc2c1C(=O)Oc1cc(C)cc(OC(=O)C(C)(C)C)c1O2`, 800 nM corresponded to half-maximal inhibition in data set [1] (IC50). Also, in data set [2], the half-life is less than 0.1 h.
Consider `COc1c([C@@H](O)CC(C)C)ccc2c1C(=O)Oc1cc(C)cc(OC(=O)[N+]34CCC(CC3)C4)c1O2`, for which, in data set [1], inhibition was half-maximal at 200 nM (IC50). This compound had a half-life in data set [2] of 3.9 h.
In data set [1], `COc1c([C@@H](O)CC(C)(C)C)ccc2c1C(=O)Oc1c(Cl)c(C)c(C)c(OC(=O)C3(C)C4CCC3CC4)c1O2` (some centres not stated) displayed an IC50 of 30 nM.
The same measure, in the same setting: for `COc1c([C@@H](O)CC(C)(C)C)ccc2c1C(=O)Oc1c(Cl)c(C)c(Br)c(OC(=O)C3(C)C4CCC3CC4)c1O2` (some centres not stated) the value was 32 nM.
As for `COc1c([C@@H](O)CC(C)C)ccc2c1C(=O)Oc1c(Cl)c(C)c(C)c(OC(=O)C3(C)C4CCC3CC4)c1O2` (some centres not stated), the midpoint of inhibition in data set [1], the IC50, lay at 30 nM. In data set [3], this compound had a half-life of more than 3 h.
In data set [1], `COc1c([C@@H](O)CC(C)C)ccc2c1C(=O)Oc1cc(C)cc(OS(=O)(=O)c3c(F)cc(F)cc3F)c1O2` returned an IC50 of 6000 nM.
With `COc1c([C@@H](O)CC(C)C)ccc2c1C(=O)Oc1c(Cl)c(C)c(Br)c(OC(=O)C3(C)C4CCC3CC4)c1O2` (some centres not stated), the midpoint of inhibition in data set [1], the IC50, lay at 60 nM. This compound returned a half-life in data set [3] of more than 3 h.
In data set [1], `COc1c([C@@H](O)CC(C)C)ccc2c1C(=O)Oc1cc(C)cc(OC(=O)N(C(C)C)C(C)C)c1O2` displayed an IC50 of 700 nM. In data set [2], this compound had a half-life of more than 5 h.
Consider `CCN(CC)C(=O)Oc1cc(C)cc2c1Oc1ccc([C@@H](O)CC(C)C)c(OC)c1C(=O)O2`, for which the midpoint of inhibition in data set [1], the IC50, lay at 3000 nM.
Same read-out and setting: for `COc1c([C@@H](O)CC(C)C)ccc2c1C(=O)Oc1cc(C)cc(OS(=O)(=O)C(C)C)c1O2` the value was 700 nM; for `CCc1c(C)c(Cl)c2c(c1OC(=O)C1(C)C3CCC1CC3)Oc1ccc([C@@H](O)CC(C)(C)C)c(OC)c1C(=O)O2` (some centres not stated), 15 nM.
In data set [1], `COc1c([C@@H](O)CC(C)C)ccc2c1C(=O)Oc1cc(C)cc(OC(=O)C3(C)CC4C=CC3C4)c1O2` (some centres not stated) gave an IC50 of 200 nM. Also, the half-life in data set [3] was 0.64 h.
In data set [1], `COc1c(C(O)C(C)C)ccc2c1C(=O)Oc1cc(C)cc(OCCC(C)C)c1O2` (racemic) registered an IC50 of 4000 nM.
Same read-out and setting: the same measure for `COc1c(C(O)CC2CCCCC2)ccc2c1C(=O)Oc1cc(C)cc(OCCC(C)C)c1O2` (racemic): more than 20000 nM; for `COc1c(C(O)CC2CC2)ccc2c1C(=O)Oc1cc(C)cc(OCCC(C)C)c1O2` (racemic): 10000 nM.
Regarding `COc1c(C(O)CCC(C)C)ccc2c1C(=O)Oc1cc(C)cc(OCCC(C)C)c1O2` (racemic), in data set [1], the IC50 is more than 20000 nM.
Same read-out and setting: the same measure for `COc1c(C(O)CC(C)(C)C)ccc2c1C(=O)Oc1cc(C)cc(OCCC(C)C)c1O2` (racemic): 1500 nM; for `COc1c(C(O)CC(C)C)ccc2c1C(=O)Oc1cc(C)cc(OCCC(C)C)c1O2` (racemic): 2000 nM.

In general, IC50 refers to the concentration that inhibits the measured activity by half. A high value points to a need for much substance. The term half-life denotes how long it takes for the measured level to halve. Higher therefore signals slow decline.
